Laboratory results: paper PMC7518156 (PeerJ, 2020)
Entries after “also recorded” stand apart in the source; their conditions may differ. Where two headings read alike, the source gives them in different places.

Assay: Pharmacokinetics of ERL and GEF in Wistar rats after four weeks consumption of water or flavoured water (plasma, UPLC-MS/MS, non-compartmental analysis)
Type: in vivo
Settings: for concentration at 0 h / concentration at 0.5 h / concentration at 1 h / concentration at 2 h / concentration at 3 h / concentration at 5 h / concentration at 24 h / concentration at 48 h / AUC(0-inf) / CL/F / Cmax / Tmax / AUC(0-t) / half-life / AUC: male, Wistar, rat, plasma, 20 mg/kg; for Tmax: read-out: tmax; for AUC(0-t): read-out: AUC0-48; for half-life: read-out: t½ (converted)
Procedure: Fifty healthy male Wistar rats weighing 250 ± 30 g were obtained from the animal house, College of Pharmacy, King Saud University, Riyadh, Saudi Arabia. Rats were randomly divided into ten cages (n = 5). All individualized ventilated cages (IVC) type IV used in this study were of 20″L × 11″W × 9″ in dimension capable of hosting 4–5 rats. Cages density, bedding, and sanitation frequency was similar in all cages. Cages were housed at room temperature (25 °C) and at an average relative humidity of 50%. Daily observation of all rats was required to ensure that all animals maintained good health. All animal experiments strictly followed the guidelines of the Ethical Committee for Performing Studies on Animals, King Saud University, Riyadh, Saudi Arabia, protocol number KSU-SE-19-13.
Four types of FW, (Aquafina®, a product of Pepsi-Cola®, Saudi Industrial Projects Company, Jeddah, Saudi Arabia) with different flavours, specifically berry (group II), peach (group III), lime (group IV), and pineapple FW (group V) were used. Other components found in FW used in this study include water, preservatives (sodium phosphate, potassium sorbet, sodium benzoate), acidifiers (citric acid, maleic acid), sweeteners (aspartame, potassium acesulfame, allose), acidity regulator (sodium citrate), and antioxidant agent (calcium disodium EDTA). […] The parallel design was used in this study to avoid animals’ physiological changes that could occur in the cross-over design, possibly affecting PK profiles of drug substances. All animals involved in the study were deprived from food, but not water/FW, for at least 12 h before drug administration. […] Drugs were administered to the rats between 7:00 am and 8:00 am. Rats were separately weighed from day one of water/FW consumption prior to drug administration for accurate dose calculation (Fig. S1). Blood samples (0.3 mL) were collected from each rat immediately prior to dosing (0 time) and at predetermined time points (0.5, 1, 2, 3, 5, 24, and 48 h) post drug administration. Blood samples were withdrawn and processed as described previously ([Maher et al., 2017]; [Maher, Alzoman & Shehata, 2016]; [Maher, Alzoman & Shehata, 2018]). Specifically, blood samples were withdrawn from the retro-orbital sinus into a series of heparinized tubes. Plasma was separated from collected blood samples by centrifugation at 4,500 rpm for 30 min where the centrifuge was maintained at 4 °C, and then stored at −20 °C until the day of analysis. […] A mixture of acetonitrile: water (80: 20, v/v), with 0.1% formic acid was used as a mobile phase at a flow rate of 0.2 mL/min ([Maher, Alzoman & Shehata, 2016]).
Cmax and tmax were obtained from the corresponding plasma concentration–time curve (Figs. 1A and 1B). […] The area under the plasma concentration–time curve from time 0 to the last sampling time t, 48 h (AUC0–t) was calculated using the trapezoidal rule. […] AUC0–∞ was also derived by summing up AUC0–t andthe area obtained by extrapolation from time t to ∞. The latter area was calculated from the division of the last measured concentration (Clast) by λz.
Results were presented as mean ± SD. PK parameters of all treated groups following the consumption of FW were compared with control (rats having free access to water), using one-way ANOVA and Bonferroni’s multiple comparisons test. Statistical significance was obtained with p-values ≤ 0.05.

[1] = oral, PKSolver sheet, dose 20 mg/kg, +Berry, read-out: Conc
[2] = oral, PKSolver sheet, dose 20 mg/kg, +Lime, read-out: Conc
[3] = oral, PKSolver sheet, dose 20 mg/kg, +Peach, read-out: Conc
[4] = oral, PKSolver sheet, dose 20 mg/kg, +Pineapple, read-out: Conc
[5] = oral, PKSolver sheet, dose 20 mg/kg, drug alone (water), read-out: Conc
[6] = po, rats, 20 mg/kg oral, +Berry FW, average, read-out: Conc*10 (ng/mL plasma)
[7] = po, rats, 20 mg/kg oral, +Lime FW, average, read-out: Conc*10 (ng/mL plasma)
[8] = po, rats, 20 mg/kg oral, +Peach FW, average, read-out: Conc*10 (ng/mL plasma)
[9] = po, rats, 20 mg/kg oral, +Pineapple FW, average, read-out: Conc*10 (ng/mL plasma)
[10] = po, rats, 20 mg/kg oral, drug alone (water), average, read-out: Conc*10 (ng/mL plasma)
[11] = po, rats, 20 mg/kg oral, four weeks berry FW, n = 5, mean (SD)
[12] = po, rats, 20 mg/kg oral, four weeks peach FW, n = 5, mean (SD)
[13] = po, rats, 20 mg/kg oral, four weeks pineapple FW, n = 5, mean (SD)
[14] = po, rats, 20 mg/kg oral, water (control), n = 5, mean (SD)
[15] = po, raw data sheet, from average profile, +Berry FW
[16] = po, raw data sheet, from average profile, +Lime FW
[17] = po, raw data sheet, from average profile, +Peach FW
[18] = po, raw data sheet, from average profile, +Pineapple FW
[19] = po, raw data sheet, from average profile, drug alone (water)
[20] = rats, berry FW relative to control (water)
[21] = rats, lime FW relative to control (water)
[22] = rats, peach FW relative to control (water)
[23] = rats, pineapple FW relative to control (water)
[24] = raw data sheet, +Berry FW vs drug alone
[25] = raw data sheet, +Lime FW vs drug alone
[26] = raw data sheet, +Peach FW vs drug alone
[27] = raw data sheet, +Pineapple FW vs drug alone

SMILES: C#Cc1cccc(Nc2ncnc3cc(OCCOC)c(OCCOC)cc23)c1 [ERL, Erlotinib]
- concentration at 0 h [1]: 6.83 ng/mL
- concentration at 0.5 h [1]: 46.3 ng/mL
- concentration at 1 h [1]: 76.7 ng/mL
- concentration at 2 h [1]: 92.4 ng/mL
- concentration at 3 h [1]: 110 ng/mL
- concentration at 5 h [1]: 45.6 ng/mL
- concentration at 24 h [1]: 11.9 ng/mL
- concentration at 48 h [1]: 8.18 ng/mL
- concentration at 0 h [2]: 19.8 ng/mL
- concentration at 0.5 h [2]: 164 ng/mL
- concentration at 1 h [2]: 103 ng/mL
- concentration at 2 h [2]: 73.3 ng/mL
- concentration at 3 h [2]: 57.6 ng/mL
- concentration at 5 h [2]: 42.2 ng/mL
- concentration at 24 h [2]: 32.1 ng/mL
- concentration at 48 h [2]: 25.1 ng/mL
- concentration at 0 h [3]: 5.49 ng/mL
- concentration at 0.5 h [3]: 67.8 ng/mL
- concentration at 1 h [3]: 81.7 ng/mL
- concentration at 2 h [3]: 111 ng/mL
- concentration at 3 h [3]: 43.2 ng/mL
- concentration at 5 h [3]: 18.2 ng/mL
- concentration at 24 h [3]: 11.4 ng/mL
- concentration at 48 h [3]: 9.85 ng/mL
- concentration at 0 h [4]: 10.6 ng/mL
- concentration at 0.5 h [4]: 22.3 ng/mL
- concentration at 1 h [4]: 36.6 ng/mL
- concentration at 2 h [4]: 120 ng/mL
- concentration at 3 h [4]: 45.3 ng/mL
- concentration at 5 h [4]: 20.9 ng/mL
- concentration at 24 h [4]: 15.8 ng/mL
- concentration at 48 h [4]: 14 ng/mL
- concentration at 0 h [5]: 9.48 ng/mL
- concentration at 0.5 h [5]: 44.5 ng/mL
- concentration at 1 h [5]: 105 ng/mL
- concentration at 2 h [5]: 48.2 ng/mL
- concentration at 3 h [5]: 29.7 ng/mL
- concentration at 5 h [5]: 23.2 ng/mL
- concentration at 24 h [5]: 12.3 ng/mL
- concentration at 48 h [5]: 9.77 ng/mL
- concentration at 0 h [6]: 6.83 ng/mL
- concentration at 0.5 h [6]: 46.3 ng/mL
- concentration at 1 h [6]: 76.7 ng/mL
- concentration at 2 h [6]: 92.4 ng/mL
- concentration at 3 h [6]: 110 ng/mL
- concentration at 5 h [6]: 45.6 ng/mL
- concentration at 24 h [6]: 11.9 ng/mL
- concentration at 48 h [6]: 8.18 ng/mL
- concentration at 0 h [7]: 19.8 ng/mL
- concentration at 0.5 h [7]: 164 ng/mL
- concentration at 1 h [7]: 103 ng/mL
- concentration at 2 h [7]: 73.3 ng/mL
- concentration at 3 h [7]: 57.6 ng/mL
- concentration at 5 h [7]: 42.2 ng/mL
- concentration at 24 h [7]: 32.1 ng/mL
- concentration at 48 h [7]: 25.1 ng/mL
- concentration at 0 h [8]: 5.49 ng/mL
- concentration at 0.5 h [8]: 67.8 ng/mL
- concentration at 1 h [8]: 81.7 ng/mL
- concentration at 2 h [8]: 111 ng/mL
- concentration at 3 h [8]: 43.2 ng/mL
- concentration at 5 h [8]: 18.2 ng/mL
- concentration at 24 h [8]: 11.4 ng/mL
- concentration at 48 h [8]: 9.85 ng/mL
- concentration at 0 h [9]: 10.6 ng/mL
- concentration at 0.5 h [9]: 22.3 ng/mL
- concentration at 1 h [9]: 36.6 ng/mL
- concentration at 2 h [9]: 120 ng/mL
- concentration at 3 h [9]: 45.3 ng/mL
- concentration at 5 h [9]: 20.9 ng/mL
- concentration at 24 h [9]: 15.8 ng/mL
- concentration at 48 h [9]: 14 ng/mL
- concentration at 0 h [10]: 9.48 ng/mL
- concentration at 0.5 h [10]: 44.5 ng/mL
- concentration at 1 h [10]: 105 ng/mL
- concentration at 2 h [10]: 48.2 ng/mL
- concentration at 3 h [10]: 29.7 ng/mL
- concentration at 5 h [10]: 23.2 ng/mL
- concentration at 24 h [10]: 12.3 ng/mL
- concentration at 48 h [10]: 9.77 ng/mL
- AUC(0-inf) [11]: 1380 ng·h/mL
- CL/F [11]: 241 mL/min/kg
- Cmax [11]: 111 ng/mL
- Tmax (po, rats, 20 mg/kg oral, four weeks lime FW, n = 5, mean (SD)): 0.51 h
- AUC(0-inf) [12]: 1530 ng·h/mL
- CL/F [12]: 219 mL/min/kg
- AUC(0-t) [12]: 827 ng·h/mL
- Cmax [13]: 120 ng/mL
- AUC(0-t) [13]: 942 ng·h/mL
- AUC(0-inf) [14]: 1320 ng·h/mL
- CL/F [14]: 253 mL/min/kg
- Cmax [14]: 106 ng/mL
- AUC(0-t) [14]: 827 ng·h/mL
- Tmax [14]: 1.02 h
- half-life [14]: 35.1 h
- AUC [15]: 1330 ng·h/mL
- Cmax [15]: 110 ng/mL
- Tmax [15]: 3 h
- half-life [15]: 13.3 h
- AUC [16]: 3340 ng·h/mL
- Cmax [16]: 164 ng/mL
- Tmax [16]: 0.5 h
- half-life [16]: 43.6 h
- AUC [17]: 1210 ng·h/mL
- Cmax [17]: 111 ng/mL
- Tmax [17]: 2 h
- half-life [17]: 27 h
- AUC [18]: 1670 ng·h/mL
- Cmax [18]: 120 ng/mL
- Tmax [18]: 2 h
- half-life [18]: 35.6 h
- AUC [19]: 1240 ng·h/mL
- Cmax [19]: 105 ng/mL
- Tmax [19]: 1 h
- half-life [19]: 29.4 h
- decrease in t1/2 [20]: ~49%
- effect on exposure (AUC0–48) [20]: significantly affected
- increase in AUC0–48 [20]: 42.35%
- increase in tmax [20]: three times increase
- decrease in apparent oral clearance (CL/F) [21]: 65%
- decrease in tmax [21]: not statistically significant
- increase in AUC0–∞ [21]: 200%
- increase in Cmax [21]: 95%
- increase in t1/2 [21]: ~65%
- effect on Cmax, AUC0–48, AUC0–∞, and CL/F [22]: no significant effect
- effect on PK parameters (overall) [22]: minimum effect; also recorded: least effect; also recorded: nearly negligible effect
- increase in t1/2 [22]: about 41%
- increase in tmax [22]: two times increase
- increase in AUC0–∞ [23]: 86%
- increase in t1/2 [23]: ~113.8%
- increase in tmax [23]: two times increase
- % change FOR AREA [24]: 7% FOR AREA
- % change FOR C MAX [24]: 5% FOR C MAX
- % change FOR AREA [25]: 170% FOR AREA
- % change FOR C MAX [25]: 56% FOR C MAX
- % change FOR AREA [26]: -2% FOR AREA
- % change FOR C MAX [26]: 6% FOR C MAX
- % change FOR AREA [27]: 35% FOR AREA
- % change FOR C MAX [27]: 13% FOR C MAX
